The numbers were not newly measured in patent US11992483B2, “Emulsions for local anesthetics” (Cali Pharmaceuticals, LLC, priority 2021, dated 2024), which cites them from elsewhere.

Counter-ions that a name gives are not always drawn. Like-named read-outs stand apart in the source and are kept apart here.

For the series the following is noted: for log P: octanol/water.

For `CCCN1CCCC[C@H]1C(=O)Nc1c(C)cccc1C` [ropivacaine free base, ropivacaine], the solubility in water entry was “insoluble in water”; the log P (commonly the decadic logarithm of the partition coefficient of the neutral form, usually between octanol and water) is on record as 2.9; the “P (octanol:water partition coefficient)” value was 794.
For the compound `CCCN1CCCC[C@H]1C(=O)Nc1c(C)cccc1C` [ropivacaine hydrochloride], for the setting “hydrochloride”, the “log P” value is recorded as 1.1 and the “P (octanol:water partition coefficient)” value is 14.
